As a reminder, the IC50 is the concentration that inhibits the measured activity by half.

Molecules are shown by their SMILES.

The text below walks through data of patent publication US12599616B2, “Subtituted sulfonylurea and sulfoximineurea derivatives” (Zydus Lifesciences Limited, priority 2020, dated 2026).

The subject of this experiment is IL-1β. Briefly: In vitro IL-1β inhibition in PMA-differentiated, LPS-primed, ATP-stimulated THP1 cells. It counts as cell-based. Particulars: Homo sapiens, THP-1; THP1 monocytes differentiated with PMA, primed with 500 ng/ml LPS 4 h, compound 30 min, 5 mM ATP 1 hr; IL-1b in supernatant; read-out: invitro IL-1β inhibitory activity (IC50). On the procedure: THP1 monocytes were differentiated with PMA (100 ng/ml) and incubated at 37° C. for 20 hrs in presence of 5% CO2. 2×10^5 differentiated cells were plated per well of 96 well tissue culture plates. The cells were primed using 500 ng/ml Lipopolysaccharide and incubating for 4 h under the same condition. The cells were then treated with various concentrations of the compounds for 30 min followed by treatment with 5 mM ATP for 1 hr. The supernatants were collected and analyzed by IL-1b (Mabtech Cat #3415-1H-20) or TNF-a (Mabtech; Cat #3510-1H-20) detection kit. The data were analyzed using GraphPad Prism V7.0. Dose Response Curve (DRC) was constructed to determine the IC50 value by fitting percentage cell survival data to the GraphPad Prism using nonlinear regression analysis.
On to `CCN(C)C(C)(C)/C=C/S(=O)(=O)NC(=O)Nc1c2c(cc3c1CCC3)CCC2` [Example 20, (E)-3-(ethyl(methyl)amino)-N-((1,2,3,5,6,7-hexahydro-s-indacen-4-yl)carbamoyl)-3-methylbut-1-ene-1-sulfonamide], for which the IC50 came to 9.9 nM.
The result for `CC(C)(/C=C/S(=O)(=O)NC(=O)Nc1c2c(cc3c1CCC3)CCC2)N1CCCC1` [Example 42, (E)-N-((1,2,3,5,6,7-hexahydro-s-indacen-4-yl)carbamoyl)-3-methyl-3-(pyrrolidin-1-yl)but-1-ene-1-sulfonamide] reads 12.6 nM.
With `CC(C)N(C)C(C)(C)/C=C/S(=O)(=O)NC(=O)Nc1c2c(cc3c1CCC3)CCC2` [Example 24, (E)-N-((1,2,3,5,6,7-hexahydro-s-indacen-4-yl)carbamoyl)-3-(isopropyl(methyl)amino)-3-methylbut-1-ene-1-sulfonamide], the IC50 came to 7.5 nM.
The result for `CC(C)N(C)C/C=C/S(=O)(=O)NC(=O)Nc1c2c(cc3c1CCC3)CCC2` [Example 5, (E)-N-((1,2,3,5,6,7-hexahydro-s-indacen-4-yl)carbamoyl)-3-(isopropyl(methyl)amino)prop-1-ene-1-sulfonamide] reads 20 nM.
The result for `CC(C)NC/C=C/S(=O)(=O)NC(=O)Nc1c2c(cc3c1CCC3)CCC2` [Example 1, (E)-N-((1,2,3,5,6,7-hexahydro-s-indacen-4-yl)carbamoyl)-3-(isopropylamino)prop-1-ene-1-sulfonamide] reads 43 nM; that for `CC(C)(/C=C/S(=O)(=NC#N)NC(=O)Nc1c2c(cc3c1CCC3)CCC2)NC(=O)OC(C)(C)C` (stereo not drawn) [Example 47, tert-butyl (E)-(4-(N′-cyano-N-((1,2,3,5,6,7-hexahydro-s-indacen-4-yl)carbamoyl)sulfamidimidoyl)-2-methylbut-3-en-2-yl)carbamate], 3.8 nM.
The value for `CN(C1CCC1)C(C)(C)/C=C/S(=O)(=O)NC(=O)Nc1c2c(cc3c1CCC3)CCC2` [Example 21, (E)-3-(cyclobutyl(methyl)amino)-N-((1,2,3,5,6,7-hexahydro-s-indacen-4-yl)carbamoyl)-3-methylbut-1-ene-1-sulfonamide] was 6 nM.
As to `CN(C)C(C)(C)/C=C/S(=O)(=NC#N)NC(=O)Nc1c2c(cc3c1CCC3)CCC2` (stereo not drawn) [Example 49, (E)-N′-cyano-3-(dimethylamino)-N-((1,2,3,5,6,7-hexahydro-s-indacen-4-yl)carbamoyl)-3-methylbut-1-ene-1-sulfonimidamide], the IC50 was 6.5 nM.
The result for `CN(C)C/C=C/S(=O)(=O)NC(=O)Nc1c2c(cc3c1CCC3)CC=C2` [Example 36, (E)-3-(dimethylamino)-N-((1,2,3,7-tetrahydro-s-indacen-4-yl)carbamoyl)prop-1-ene-1-sulfonamide] reads 9.6 nM; that for `CN(C)C(C)(C)/C=C/S(=O)(=O)NC(=O)Nc1c2c(cc3c1CCC3)CCC2` [Example 6, (E)-3-(dimethylamino)-N-((1,2,3,5,6,7-hexahydro-s-indacen-4-yl)carbamoyl)-3-methylbut-1-ene-1-sulfonamide], 5.6 nM.
The value for `O=C(Nc1c2c(cc3c1CCC3)CCC2)NS(=O)(=O)/C=C/CN1CCCC1` [Example 18, (E)-N-((1,2,3,5,6,7-hexahydro-s-indacen-4-yl)carbamoyl)-3-(pyrrolidin-1-yl)prop-1-ene-1-sulfonamide] was 6.6 nM; that for `CC(C)CN(C)C(C)(C)/C=C/S(=O)(=O)NC(=O)Nc1c2c(cc3c1CCC3)CCC2` [Example 35, (E)-N-((1,2,3,5,6,7-hexahydro-s-indacen-4-yl)carbamoyl)-3-(isobutyl(methyl)amino)-3-methylbut-1-ene-1-sulfonamide] was 11 nM.
